Results: patent US9182397B2, “Immunoassay for detecting antibiotics” (DSM IP ASSETS B.V., priority 2011, dated 2015)
Values belong to the molecule of their own block, whether it stands above or below them.

System: Penicillin binding protein purified from Bacillus stearothermophilus
Assay: Sensitivity of the test device for different antibiotics (Example 23)
Parameters: key: 0: no intensity; 1: low intensity; 2: medium intensity; 3: high intensity
Procedure: A nitrocellulose HF90 membrane (Millipore; length 25 mm) was used as a detection region. The membrane was glued to a polystyrene laminated card (thickness 0.254 mm) 8 mm from the proximal end of the card. Next, the detection zone and control zone were applied onto the nitrocellulose membrane. The detection zone was applied by dispensing 1 mg/ml of a 7ACA-spacer-BSA conjugate in 20 mM KPO4-buffer (pH 7.5) with a Biodot Dispense workstation XYZ 3050 with frontline at 0.2 μl/cm. The control zone was applied by dispensing 0.15 mg/ml of an anti-IgY antibody in 20 mM KPO4-buffer (pH 7.5) comprising 0.675 mg/ml BSA, 5% w/v saccharose and 20 mM NaCl with a Biodot Dispense workstation XYZ 3050 with frontline at 0.8 μl/cm. After drying of the zones, the nitrocellulose membrane was blocked by spraying a solution comprising 10 mM Tris buffer (pH 8) comprising 2% w/v BSA and 0.05% w/v Tween-20 using a Biodot Dispense workstation XYZ 3050 with airjet 3×. The solution was sprayed onto the membrane at a distance of 2 mm below the detection zone. Thereafter, the sample receiving region (VF2 membrane from Millipore; length 1 cm) was glued at the proximal end of the card overlapping 2 mm with the nitrocellulose membrane. The absorbing region (10038 membrane from Millipore; length 20 mm) was glued at the distal end of the card with an overlap of 2 mm on the nitrocellulose membrane. The obtained cards were dried at 37° C. in a dry atmosphere (0% relative humidity). The card was cut in strips of 5.2 mm width and kept at a dry atmosphere (0% relative humidity).
Streptavidin-coated gold particles were synthesized by reacting colloidal gold (diameter 40 nm; 1 OD/ml) with 10 μg/ml streptavidin. Next, the obtained solution was concentrated by tangential flow filtration, washed and stored in a Tris buffer (pH 8) including NaCN. Penicillin binding protein purified from Bacillus stearothermophilus was biotinylated (1:4) with D-biotinyl-epsilon-aminocaproic acid-N-hydroxysuccinimide ester. Next, the penicillin binding protein-gold conjugate was synthesized by reacting 1.5 μg biotinylated penicillin binding protein with 1 OD streptavidin-coated gold particles for 1 hour, followed by centrifugation at 10,000×g for 5 minutes and resuspension of the obtained pellet in 45 mM bicarbonate buffer comprising 0.1% w/v Triton X-100 (pH 9.6).
Thereafter, 140-200 mOD of the penicillin binding protein-gold conjugate and 5-20 mOD of the IgY-gold conjugate was solubilized in 100 μl buffer (80 mM Tris buffer comprising 0.01% w/v Triton-X-100, 0.4% w/v BSA, 5% v/v glycerin and 2% w/v saccharose (pH 8.5)) and 0.75 μl of the solution was dispensed per tube and dried for 12 hours at 40° C. The obtained tubes were sealed.
150 μl of spiked milk was added per tube containing the dried conjugates. The concentration of penicillin G in the added milk varied from 0 to 4 ng/g (tube 1: 0 ng/g; […]; tube 2: 2 ng/g; tube 3: 3 ng/g; and tube 4: 4 ng/g). The obtained liquid composition was incubated for 2 minutes at 64° C. in an incubator. A test device was put into the tube and incubated for 3 minutes at 64° C. in the incubator. The result was read by eye.
The test was done essentially as described in Example 3, with the proviso that different antibiotics at different concentrations were tested.

Intensity of detection zone (Cefoperazone 4.0 ng/g in milk): 2
Intensity of detection zone (Cefoperazone 4.9 ng/g in milk): 2
Intensity of detection zone (Cefoperazone 5.8 ng/g in milk): 1
Intensity of detection zone (Cefoperazone 6.7 ng/g in milk): 1
Intensity of detection zone (Cefoperazone 7.6 ng/g in milk): 0
Compound: CCN1CCN(C(=O)N[C@@H](C(=O)N[C@@H]2C(=O)N3C(C(=O)O)=C(CSc4nnnn4C)CS[C@H]23)c2ccc(O)cc2)C(=O)C1=O [Cefoperazone]

Intensity of detection zone (Cefazolin 10.0 ng/g in milk): 2
Intensity of detection zone (Cefazolin 12.5 ng/g in milk): 1
Intensity of detection zone (Cefazolin 15.0 ng/g in milk): 0
Intensity of detection zone (Cefazolin 17.5 ng/g in milk): 0
Intensity of detection zone (Cefazolin 20.0 ng/g in milk): 0
Compound: Cc1nnc(SCC2=C(C(=O)O)N3C(=O)[C@@H](NC(=O)Cn4cnnn4)[C@H]3SC2)s1 [Cefazolin]

Intensity of detection zone (Amoxicillin 3.3 ng/g in milk): 2
Intensity of detection zone (Amoxicillin 4.3 ng/g in milk): 1
Intensity of detection zone (Amoxicillin 5.3 ng/g in milk): 1
Intensity of detection zone (Amoxicillin 6.3 ng/g in milk): 0
Intensity of detection zone (Amoxicillin 7.3 ng/g in milk): 0
Compound: CC1(C)S[C@@H]2[C@H](NC(=O)[C@H](N)c3ccc(O)cc3)C(=O)N2[C@H]1C(=O)O [Amoxicillin]

Intensity of detection zone (Oxacillin 27.0 ng/g in milk): 2
Intensity of detection zone (Oxacillin 34.8 ng/g in milk): 2
Intensity of detection zone (Oxacillin 42.6 ng/g in milk): 1
Intensity of detection zone (Oxacillin 50.4 ng/g in milk): 0
Intensity of detection zone (Oxacillin 58.2 ng/g in milk): 0
Compound: Cc1onc(-c2ccccc2)c1C(=O)N[C@@H]1C(=O)N2[C@@H]1SC(C)(C)[C@@H]2C(=O)O [Oxacillin]

Intensity of detection zone (Cefquinome 12.5 ng/g in milk): 2
Intensity of detection zone (Cefquinome 15.8 ng/g in milk): 1
Intensity of detection zone (Cefquinome 19.1 ng/g in milk): 0
Intensity of detection zone (Cefquinome 22.4 ng/g in milk): 0
Intensity of detection zone (Cefquinome 25.7 ng/g in milk): 0
Compound: CO/N=C(\C(=O)N[C@@H]1C(=O)N2C(C(=O)[O-])=C(C[n+]3cccc4c3CCCC4)CS[C@H]12)c1csc(N)n1 [Cefquinome]

Intensity of detection zone (Dicloxacillin 15.0 ng/g in milk): 3
Intensity of detection zone (Dicloxacillin 20.0 ng/g in milk): 2
Intensity of detection zone (Dicloxacillin 25.0 ng/g in milk): 2
Intensity of detection zone (Dicloxacillin 30.0 ng/g in milk): 1
Intensity of detection zone (Dicloxacillin 35.0 ng/g in milk): 0
Compound: Cc1onc(-c2c(Cl)cccc2Cl)c1C(=O)N[C@@H]1C(=O)N2[C@@H]1SC(C)(C)[C@@H]2C(=O)O [Dicloxacillin]

Intensity of detection zone (Cefalexin 34.0 ng/g in milk): 2
Intensity of detection zone (Cefalexin 43.0 ng/g in milk): 1
Intensity of detection zone (Cefalexin 52.0 ng/g in milk): 0
Intensity of detection zone (Cefalexin 61.0 ng/g in milk): 0
Intensity of detection zone (Cefalexin 70.0 ng/g in milk): 0
Compound: CC1=C(C(=O)O)N2C(=O)[C@@H](NC(=O)[C@H](N)c3ccccc3)[C@H]2SC1 [Cefalexin]

Intensity of detection zone (Ceftiofur 4.0 ng/g in milk): 2
Intensity of detection zone (Ceftiofur 5.1 ng/g in milk): 1
Intensity of detection zone (Ceftiofur 6.2 ng/g in milk): 0
Intensity of detection zone (Ceftiofur 7.3 ng/g in milk): 0
Intensity of detection zone (Ceftiofur 8.4 ng/g in milk): 0
Compound: CO/N=C(\C(=O)N[C@@H]1C(=O)N2C(C(=O)O)=C(CSC(=O)c3ccco3)CS[C@H]12)c1csc(N)n1 [Ceftiofur]

Intensity of detection zone (Cloxacillin 32.5 ng/g in milk): 1
Intensity of detection zone (Cloxacillin 43.2 ng/g in milk): 0
Intensity of detection zone (Cloxacillin 53.9 ng/g in milk): 0
Intensity of detection zone (Cloxacillin 64.6 ng/g in milk): 0
Intensity of detection zone (Cloxacillin 75.3 ng/g in milk): 0
Compound: Cc1onc(-c2ccccc2Cl)c1C(=O)N[C@@H]1C(=O)N2[C@@H]1SC(C)(C)[C@@H]2C(=O)O [Cloxacillin]

Intensity of detection zone (Cefalonium 3.2 ng/g in milk): 2
Intensity of detection zone (Cefalonium 4.0 ng/g in milk): 1
Intensity of detection zone (Cefalonium 4.8 ng/g in milk): 0
Intensity of detection zone (Cefalonium 5.6 ng/g in milk): 0
Intensity of detection zone (Cefalonium 6.4 ng/g in milk): 0
Compound: NC(=O)c1cc[n+](CC2=C(C(=O)[O-])N3C(=O)[C@@H](NC(=O)Cc4cccs4)[C@H]3SC2)cc1 [Cefalonium]

Intensity of detection zone (Nafcillin 40.0 ng/g in milk): 3
Intensity of detection zone (Nafcillin 50.5 ng/g in milk): 2
Intensity of detection zone (Nafcillin 61.0 ng/g in milk): 1
Intensity of detection zone (Nafcillin 71.5 ng/g in milk): 0
Intensity of detection zone (Nafcillin 82.0 ng/g in milk): 0
Compound: CCOc1ccc2ccccc2c1C(=O)N[C@@H]1C(=O)N2[C@@H]1SC(C)(C)[C@@H]2C(=O)O [Nafcillin]

Intensity of detection zone (Ampicillin 5.3 ng/g in milk): 2
Intensity of detection zone (Ampicillin 6.9 ng/g in milk): 1
Intensity of detection zone (Ampicillin 8.5 ng/g in milk): 0
Intensity of detection zone (Ampicillin 10.1 ng/g in milk): 0
Intensity of detection zone (Ampicillin 11.7 ng/g in milk): 0
Compound: CC1(C)S[C@@H]2[C@H](NC(=O)[C@H](N)c3ccccc3)C(=O)N2[C@H]1C(=O)O [Ampicillin]
